Laboratory results from ChEMBL document CHEMBL5674860, “Optimized Dual-Glo Assay to identify co-culture-induced drug vulnerabilities in 3D CRC models” (2024).

Tests used:
Format in all cases: functional, Homo sapiens
Set-up in all cases: dose or concentration left out as unconfirmed
Colon cancer organoid [1] = test: Optimized Dual-Glo assay to identify co-culture induced drug vulnerabilities using donated chemical probes and chemogenomics kinase set in O14 CRC organoid and F14 CAF mono and co-culture. […] Cell viability is reported both mono and co-culture models.
Colon cancer organoid [2] = test: Optimized Dual-Glo assay to identify co-culture induced drug vulnerabilities using donated chemical probes and chemogenomics kinase set in O06 CRC organoid and F06 CAF mono and co-culture. […] Cell viability is reported both mono and co-culture models.
Colon cancer organoid [3] = test: Optimized Dual-Glo assay to identify co-culture induced drug vulnerabilities using donated chemical probes and chemogenomics kinase set in O20 CRC organoid and F20 CAF mono and co-culture. […] Cell viability is reported both mono and co-culture models.
[4] = Culture type Co-Culture, Transduced with Lucferase2-P2A-EGFP lentivirus
[5] = Culture type Co-Culture, Transduced with Renilla-dsRed lentivirus
[6] = Culture type Mono-Culture, Transduced with Lucferase2-P2A-EGFP lentivirus
[7] = Culture type Mono-Culture, Transduced with Renilla-dsRed lentivirus

Structure (SMILES)	Cell Viability (Colon cancer organoid [1]; [4])	Cell Viability (Colon cancer organoid [1]; [5])	Cell Viability (Colon cancer organoid [1]; [6])	Cell Viability (Colon cancer organoid [1]; [7])	Cell Viability (Colon cancer organoid [2]; [4])	Cell Viability (Colon cancer organoid [2]; [5])	Cell Viability (Colon cancer organoid [2]; [6])	Cell Viability (Colon cancer organoid [2]; [7])	Cell Viability (Colon cancer organoid [3]; [4])	Cell Viability (Colon cancer organoid [3]; [5])	Cell Viability (Colon cancer organoid [3]; [6])	Cell Viability (Colon cancer organoid [3]; [7])
Cc1cc(CN)cc(C)c1-c1ncn(C)c1-c1cncn1C	82.5441%	115.965%	119.104%	86.3829%	121.461%	141.638%	159.088%	144.43%	127.582%	117.48%	113.288%	98.6435%
CCn1cc(-c2ccnc3[nH]c(-c4cccc(CN(C)C)c4)cc23)c(-c2ccc(NC(=O)N(C)C)cc2)n1 [GSK-1070916]	29.7048%	205.838%	28.675%	102.681%	8.589%	116.692%	3.637%	93.7927%	9.493%	207.056%	12.2557%	100.034%
CN(C(=O)c1ccccc1)c1cc(N(C)c2ccc3c(c2)CCc2ccc(C(=O)NCCN4CCOCC4)cc2C3=O)ccc1F [FM-743]	83.789%	122.182%	115.906%	98.7995%	67.0526%	69.6878%	72.1659%	109.641%	87.5807%	153.202%	104.972%	128.329%
COc1ncc(-c2ccc3nccc(-c4ccnnc4)c3c2)cc1NS(=O)(=O)c1ccc(F)cc1F [OMIPALISIB]	1.562%	61.2077%	2.831%	44.5325%	2.362%	34.7423%	3.227%	27.5983%	2.277%	94.8256%	1.422%	74.6652%
CCc1ccccc1C(=O)Nc1n[nH]c2c(C)c(F)c(C3C(C#N)=C(C)N(C)C(C)=C3C#N)cc12 [BAY-3827]	89.6646%	118.565%	81.9788%	77.2526%	80.578%	109.489%	83.7184%	82.828%	74.4041%	157.673%	58.8443%	110.691%
COc1cc(Nc2nccc(-c3cnn4nc(OC)ccc34)n2)cc(C(F)(F)F)c1	8.865%	107.014%	18.5626%	63.2458%	25.4978%	199.418%	18.9413%	49.3331%	11.0854%	189.711%	12.7509%	71.1906%
O=C(Nc1cccnc1)c1cc(-c2ccnc(F)c2)ccc1OCc1ccccc1	118.198%	103.257%	132.36%	106.667%	87.3368%	83.1264%	73.6273%	99.0368%	125.655%	104.766%	84.3573%	88.986%
CCOc1ccn(-c2ccc(F)cc2)c(=O)c1C(=O)Nc1ccc(Oc2ccnc(N)c2Cl)c(F)c1 [BMS-777607]	80.1334%	87.7624%	119.97%	83.2963%	91.8113%	94.0587%	160.363%	101.253%	100.473%	72.8578%	109.106%	74.8704%
CC(C)(C)c1cc(NC(=O)Nc2ccc(-c3cn4c(n3)sc3cc(OCCN5CCOCC5)ccc34)cc2)no1 [QUIZARTINIB]	40.6861%	210.95%	46.4384%	89.2922%	26.1053%	134.448%	20.7828%	88.706%	58.7644%	111.29%	48.0043%	98.7475%
C[C@H](c1ccnc(Nc2nc3ccc(-c4cc(N(C)C)ncn4)cc3[nH]2)c1)N1CCN(C(=O)CC(F)(F)F)CC1 [BAY-985]	122.433%	113.895%	111.789%	77.4572%	134.436%	180.071%	90.5996%	96.3949%	129.711%	125.86%	106.931%	106.043%
CC(C)(C#Cc1ccc(NC(=O)COc2ccccc2C(=O)c2ccccc2)c(Cl)c1)C(=O)O [BI 2439]	91.5107%	105.147%	118.998%	103.818%	98.7582%	98.9732%	147.342%	109.263%	147.968%	100.148%	97.854%	121.686%
CC(=O)N1CCC(c2ccc(C(=O)NC(=N)N)cc2C(F)(F)F)CC1 [BI 9627]	82.2007%	132.273%	72.3529%	98.3882%	150.087%	189.046%	112.79%	98.1409%	96.0735%	101.417%	111.956%	89.7357%
CNc1cc(Oc2cc(C(=O)Nc3cc(N4CCN(C)CC4)cc(C(F)(F)F)c3)ccc2C)ncn1	139.066%	110.099%	182.817%	99.4408%	72.9479%	75.3319%	138.287%	104.785%	162.082%	75.5289%	115.09%	103.127%
CC(=O)N1CCC(c2ccc(C(=O)NC3=NCCN3)cc2C(F)(F)F)CC1 [BI 0054]	129.436%	116.761%	105.472%	102.083%	128.003%	143.254%	114.863%	104.942%	121.714%	122.015%	116.125%	107.845%
Cn1cc(C2=C(c3cn(C4CCN(Cc5ccccn5)CC4)c4ccccc34)C(=O)NC2=O)c2ccccc21 [ENZASTAURIN]	77.4844%	94.2381%	86.5336%	83.0179%	65.6638%	92.7001%	58.602%	101.572%	54.9568%	78.6109%	53.3905%	66.2903%
CN(C)CCOc1ccc(-c2nc(-c3ccncc3)c(-c3ccc4c(c3)CC/C4=N\O)[nH]2)cc1 [SB590885]	125.618%	131.894%	138.834%	91.3736%	79.2379%	96.48%	138.873%	135.694%	155.192%	68.1541%	66.5679%	111.294%
CCOc1ccc(S(=O)(=O)Nc2ccc(Cl)cc2C#Cc2cnc(C(=O)[O-])cc2OC)c2ncccc12.[K+]	128.517%	94.7736%	96.9622%	95.2003%	117.764%	113.31%	103.254%	83.0425%	109.87%	117.362%	101.299%	92.0089%
CCN1CCN(c2ccc(Nc3cc(N(C)C(=O)Nc4c(Cl)c(OC)cc(OC)c4Cl)ncn3)cc2)CC1 [INFIGRATINIB]	13.9667%	230.084%	45.8266%	126.071%	0.6967%	125.024%	12.6822%	113.181%	101.104%	52.242%	73.2403%	44.318%
